Here are results for 2 molecules from US5962284A, “Acrylamidase enzymes” (Ciba Specialty Chemicals Water Treatments Limited, priority 1997, dated 1999).

The subject of test [1] is acrylamidase produced by Rhodococcus erythropolis NCIMB 40889. As to the kind of experiment: Adipic acid activity assay (amidase activity at pH 4 with added adipic acid). The following applies: pH 4, 50 mM acrylamide, 30° C. Format: biochemical. An excerpt:
(§1) For measurement of Km (see below) the same conditions can be used, except that the acrylamide concentration is of course varied. One unit (U) of amidase activity hydrolyses 1 micromole of acrylamido per minute under the above conditions. The specific activity is the amount of units of activity present per dry gram of cell material. The relative activity is the % activity relative to activity at ph 7.
In this specification, comparison of acrylamidase activity in the presence of adipic acid and in the absence of adipic acid is measured by the following adipic acid activity assay:
To an assay mixture at pH 4 as described for measurement of activity at pH 4 and pH 7 is added adipic acid to give the concentrations required. Cell suspension is then added to the assay mixture. The amidase activity of each suspension is then measured. The relative activity is % activity relative to activity in the absence of adipic acid.

For test [2] the test system is unchanged. The settings on record: read-out: Km for acrylamide; pH 4.0, 30° C., cell suspension.
From the text: as §1
(§2) In this specification, Km is Km for acrylamide measured at pH 4.0.

In test [3] the test system is acrylamidase produced by Rhodococcus species NCIMB 40755. The settings on record: read-out: Km for acrylamide; pH 4.0, 30° C., cell suspension.
From the text: as §1, §2

`O=C(O)CCCCC(=O)O` [Adipic Acid, adipic acid]: the “Relative Activity (%) relative to activity in the absence of adipic acid” value came out at 95% in test [1] (5 mM adipic acid); 69% in test [1] (10 mM adipic acid); 38% in test [1] (15 mM adipic acid); 30% in test [1] (22.5 mM adipic acid); 29% in test [1] (25 mM adipic acid); 12% in test [1] (50 mM adipic acid).

As to `C=CC(N)=O` [acrylamide], the Km in test [2] is 11.6 mM; in test [3] it was 6 mM.
